{
  "source": "patent US20110224245A1",
  "about": "“Treatment Of Neurological Disorders Using Huperzine” (President and Fellows of Harvard College, priority 2008, published 2011)",
  "key": {"[1]": {"test_system": "6 Hz seizures", "experiment": "6 Hz anticonvulsant evaluation in mice, ICV administration", "format": "in vivo", "source_text": "Huperzine delivered directly to the central nervous system (e.g., cerebral ventricles, intrathecal space), via direct injection and/or through an apparatus such as a pump or material containing Huperzine, bypasses the systemic effect by minimizing bioavailability of Huperzine in the rest of the body, and potently prevents and treats seizure, pain and/or other neurological conditions.\nResults after direct administration to neural tissue using an art-recognized 6-HZ animal model are shown below.\nDoses listed as pmol/5 microliter injection volume for ICV. TD50 at 0.5 hrs: 36.15 (9.35-121.74) 1.57+/−0.51.\n(§1) Male, 18-25 g CF1 mice and 100-125 g Sprague-Dawley rats (Charles River Laboratories, Wilmington, Mass.) were used as the experimental animals. Animals were pretreated intraperitoneally (i.p.) with increasing doses of HupA and tested at various times after administration for protection against tonic extension (MES test), minimal clonic (s.c. PTZ test), limbic (6 Hz), or secondarily generalized (kindled rat) seizures. Seizure testing was carried out as follows. For the MES and 6 Hz tests, a drop of anesthetic/electrolyte solution (0.5% tetracaine hydrochloride in 0.9% saline) was applied to the eyes of each animal prior to placement of the corneal electrodes. The electrical stimulus in the MES test was 50 mA, 60 Hz, for mice and 150 mA, 60 Hz, for rats, delivered for 0.2 sec (White et al., 2002, In R. H. Levy et al., eds. Antiepileptic Drugs, 5th edition, p. 36-48, Philadelphia: Lippincott Williams & Wilkins). The ability of the test substance to prevent seizures induced by 6 Hz corneal stimulation (32 mA, 3 sec duration) was assessed at various times after i.p. administration of 1 mg/kg HupA For assessment of hippocampal kindling, HupA (1 mg/kg, i.p.) was administered. The ability of the compound to block the expression of hippocampal kindled seizures was evaluated using the rapid hippocampal kindling model (White et al., 2002). Animals not displaying secondarily generalize seizures were considered protected."}, "[2]": {"test_system": "formalin-induced paw-licking", "experiment": "Formalin test (paw licking) in mice", "format": "in vivo", "method": "The formalin test for antinociceptive activity is described in numerous publications, e.g., Hunskaar, S., O. B. Fasmer, and K. Hole, J. Neurosci. […] The formalin test is accepted as an art recognized model of persistent clinical pain.\nMale Swiss Webster NIH mice (20-30 g; Harlan, San Diego, Calif.) were used in the experiments described herein. Food was withdrawn on the day of experiment. Mice were placed in Plexiglass jars for at least 1 hour to accommodate to the environment. Following the accommodation period, mice were weighed and given either a huperzine compound administered intraperitoneal (i.p.) or oral (p.o.), or the appropriate volume of vehicle (10% Tween-80). Fifteen minutes after the i.p. dosing, and 30 minutes after the p.o. dosing mice were injected with formalin (20 μL of 5% formaldehyde solution in saline) into the dorsal surface of the right hind paw. Mice were transferred to the Plexiglass jars and monitored for the amount of time spent licking or biting the injected paw. Periods of licking and biting were recorded in 5 minute intervals for 40 minutes after the formalin injection. All experiments were done in a blinded manner. The early phase (acute) of the formalin response is measured as licking/biting between 0-5 minutes, and the late phase (inflammatory) is measured from 10-40 minutes. Differences between vehicle and drug treated groups are analyzed by one-way analysis of variance (ANOVA). A P value<0.05 is considered significant.\nFifteen minutes after the i.p. dosing, mice were injected with formalin (20 μL of 5% formaldehyde solution in saline) into the dorsal surface of the right hind paw. Periods of licking and biting were recorded in 5 minute intervals for 40 minutes after the formalin injection as shown below in Tables 1 and 2. All experiments were done according to the art-recognized Anticonvulsant Screening Program of the NINDS at the University of Utah.\nDuration of paw licking in the tables below is expressed in seconds."}, "[3]": {"test_system": "maximal electroshock seizure (MES)", "experiment": "Maximal Electroshock (MES) model, mice i.p.", "format": "in vivo", "conditions": "1 mg/kg", "method": "Huperzine A was evaluated in the Maximal Electroshock (MES) and Subcutaneous Metrazol (pentylenetetrazol; SCMET) models of generalized tonic-clonic and myoclonic seizures, respectively in mice and rats.\nThe maximal electroshock (MES) model is an art recognized test, useful to investigate the efficacy of therapeutic agents against grand mal seizures. Maximal seizures were induced by the application of electrical current to the brain via corneal electrodes. The stimulus parameters for mice were 50 mA in a pulse of 60 Hz for 200 ms. The animals were given the huperzine dissolved in methyl cellulose and spasm inhibition was recorded as a measure of anticonvulsant activity.\nHuperzine A was either administered in a soluble form (SOL) or as a suspension (SUS). […]\nMale, 18-25 g CF1 mice and 100-125 g Sprague-Dawley rats (Charles River Laboratories, Wilmington, Mass.) were used as the experimental animals. […] The ability of the test substance to prevent seizures induced by 6 Hz corneal stimulation (32 mA, 3 sec duration) was assessed at various times after i.p. administration of 1 mg/kg HupA For assessment of hippocampal kindling, HupA (1 mg/kg, i.p.) was administered. The ability of the compound to block the expression of hippocampal kindled seizures was evaluated using the rapid hippocampal kindling model (White et al., 2002). […]"}, "[4]": {"test_system": "rats", "experiment": "Toxicity (TOX) / minimal motor impairment, rats, oral", "format": "in vivo"}, "[5]": {"test_system": "6 Hz seizures", "experiment": "6 Hz seizure test, mice i.p.", "format": "in vivo", "conditions": "for Time to Peak Effect N/F: 6 HZ, 0.83 mg/kg", "method": "HupA was also evaluated for its ability to modify tonic extension, minimal clonic, limbic seizures in the maximal electroshock seizure (MES), subcutaneous pentylenetetrazol (sc PTZ), and 6 Hz seizure tests following intraperitoneal administration. These three tests are highly predictive of efficacy against human generalized tonic-clonic (MES), generalized myoclonic (sc PTZ), and refractory limbic (6 Hz) seizures, respectively. In addition, it was tested for its ability to prevent the expression of Stage V seizures in the hippocampal kindled rat model of partial epilepsy.\nas §1"}, "[6]": {"test_system": "patients", "conditions": "published clinical studies; mainly cholinergic (dizziness, nausea, gastrointestinal symptoms, sweating, depressed heart rate); cited from earlier work"}},
  "data": [
    {"smiles": "C/C=C1\\[C@H]2C=C(C)C[C@]1(N)c1ccc(=O)[nH]c1C2", "note": "[Huperzine A]", "values": [
      {"measurement": "ED50", "setting": "[1]; 6 HZ, ICV, 32 mA, 0.5 h", "result": "0.21 pmol/5 microliter injection volume"},
      {"measurement": "N/F (animals active over number tested)", "setting": "[1]; ICV, 32 mA, 0.5 h, dose 0.01 (pmol/5 microliter; head prints mg/kg)", "result": "3/8"},
      {"measurement": "N/F (animals active over number tested)", "setting": "[1]; ICV, 32 mA, 0.5 h, dose 1 (pmol/5 microliter; head prints mg/kg)", "result": "5/8"},
      {"measurement": "N/F (animals active over number tested)", "setting": "[1]; ICV, 32 mA, 0.5 h, dose 10 (pmol/5 microliter; head prints mg/kg)", "result": "6/8"},
      {"measurement": "N/F (animals active over number tested)", "setting": "[1]; ICV, 32 mA, 0.5 h, dose 100 (pmol/5 microliter; head prints mg/kg)", "result": "8/8"},
      {"measurement": "N/F (animals active over number tested)", "setting": "[1]; ICV, 32 mA, 0.5 h, dose 1000 (pmol/5 microliter; head prints mg/kg)", "result": "4/4"},
      {"measurement": "Time to Peak Effect N/F", "setting": "[1]; ICV, 32 mA, dose 10 (pmol/5 microliter), 0.25 h", "result": "2/4"},
      {"measurement": "Time to Peak Effect N/F", "setting": "[1]; ICV, 32 mA, dose 10 (pmol/5 microliter), 0.5 h", "result": "3/4"},
      {"measurement": "Time to Peak Effect N/F", "setting": "[1]; ICV, 32 mA, dose 100 (pmol/5 microliter), 0.25 h", "result": "4/4"},
      {"measurement": "Time to Peak Effect N/F", "setting": "[1]; ICV, 32 mA, dose 100 (pmol/5 microliter), 0.5 h", "result": "3/4"},
      {"measurement": "Time to Peak Effect N/F", "setting": "[1]; ICV, 32 mA, dose 100 (pmol/5 microliter), 1.0 h", "result": "1/4"},
      {"measurement": "ICV ED50 dose", "setting": "[1]; mouse 6-hz model, ICV", "result": 52, "unit": "pgrams"},
      {"measurement": "maximum concentration in the cerebral ventricles after the ICV ED50 dose", "setting": "[1]; mouse 6-hz model, ICV ED50 dose, 40 μL", "result": "approximately 1.3 pgram/μL"},
      {"measurement": "Area Under the Curve, % of Control", "setting": "[2]; 0.5 mg/kg i.p., Acute phase", "result": 2.8, "unit": "%"},
      {"measurement": "Area Under the Curve, % of Control", "setting": "[2]; 0.5 mg/kg i.p., Inflammatory phase", "result": 0.0, "unit": "%"},
      {"measurement": "inhibition of phase 1 (acute) pain response", "setting": "[2]; 1 mg/kg i.p.", "result": "complete inhibition"},
      {"measurement": "inhibition of phase 2 (inflammatory) pain response", "setting": "[2]; 1 mg/kg i.p.", "result": "complete inhibition"},
      {"measurement": "Area Under the Curve, % of Control", "setting": "[2]; 1 mg/kg i.p., Acute phase", "result": 0.0, "unit": "%"},
      {"measurement": "Area Under the Curve, % of Control", "setting": "[2]; 1 mg/kg i.p., Inflammatory phase", "result": 0.0, "unit": "%"},
      {"measurement": "protection in the mouse MES test (FIG. 1)", "setting": "[3]", "result": "time-dependent protection"},
      {"measurement": "behavioral impairment at anticonvulsant doses", "setting": "[4]", "result": "marked motor impairment"},
      {"measurement": "toxicity", "setting": "[4]; 1 mg/kg oral", "result": "no toxicity"},
      {"measurement": "protection in the mouse 6 Hz test (FIG. 1)", "setting": "[5]; 0.8 mg/kg", "result": "time-dependent protection"},
      {"measurement": "Time to Peak Effect N/F", "setting": "[5]; 0.25 h", "result": "1/4"},
      {"measurement": "Time to Peak Effect N/F", "setting": "[5]; 0.5 h", "result": "1/4"},
      {"measurement": "Time to Peak Effect N/F", "setting": "[5]; 1.0 h", "result": "4/4"},
      {"measurement": "Time to Peak Effect N/F", "setting": "[5]; 2.0 h", "result": "2/4"},
      {"measurement": "Time to Peak Effect N/F", "setting": "[5]; 4.0 h", "result": "0/4"},
      {"measurement": "protection against 6 Hz seizures (FIG. 2)", "setting": "[5]; mouse, in vivo", "result": "dose-dependent protection"},
      {"measurement": "adverse effects in patients", "setting": "[6]", "result": "adverse effects were noted infrequently"}
    ]}
  ]
}
